Laboratory results published in patent publication US11827628B2, “Compositions and methods for inhibition of the JAK pathway” (Rigel Pharmaceuticals, Inc., priority 2005, dated 2023).
pIC50: −log10 of the molar value. Structures can show the parent of a compound that is named as a salt. Where two headings read alike, the source gives them in different places.

Experiments:
[1] = system: IL-4 stimulated expression of CD23 in human Ramos B cells (JAK-1 and JAK-3); experiment: Assay for Ramos B-Cell Line Stimulated with IL-4 (CD23 upregulation, FACS); format: cell-based; settings: read-out: IC50, Example 41
Outline: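 Compound effect on IL-4-driven JAK1/JAK3 signalling is gauged as CD23 surface expression, measured by FACS after 20-24 h of stimulation with IL-4 at 50 units/mL final. A 1 h compound pre-treatment at 37 °C precedes stimulation, and IC50 is derived from the results.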

[2] = system: Primary human T-cells; experiment: Primary Human T-Cell Proliferation Assay Stimulated with IL-2 (CellTiter-Glo); format: cell-based; settings: read-out: IC50, Example 42
Outline: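 IC50 derived from CellTiter-Glo ATP signal after 72 hours of IL-2-driven proliferation at 37° C. Cells: primary human T-cells from blood, stimulated beforehand 3-4 days on anti-CD3/anti-CD28 with IL-2, then rested from IL-2 before compound exposure in duplicate; IL-2-free wells served as unstimulated control.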

[3] = Ramos B-cell line stimulated with IL-4, CD23 expression by FACS
[4] = primary human T-cell proliferation stimulated with IL-2
[5] = Ramos B cells stimulated with IL-4, CD23 expression by FACS
[6] = primary human T-cells stimulated with IL-2, proliferation

Molecule `Cc1ccc(Nc2ncc(F)c(Nc3cccc(OCc4cccnc4)c3)n2)cc1S(N)(=O)=O` [Compound I-183, N2-(3-Aminosulfonyl-4-methylphenyl)-5-fluoro-N4-[3-(3-pyridinyl)methyleneoxyphenyl]-2,4-pyrimidinediamine] has a pIC50 [1, 3] of 6.60 and a pIC50 [2, 4] of 5.74.
Molecule `COCCOc1ccc(Nc2nc(Nc3ccc(C)c(S(N)(=O)=O)c3)ncc2F)cc1` [VI-112, N2-(3-Aminosulfonyl-4-methylphenyl)-5-fluoro-N4-[4-(2-methoxyethyleneoxy)phenyl]-2,4-pyrimdinediamine] has a pIC50 [1, 5] of 6.82 and a pIC50 [2, 6] of 6.11.
`CS(=O)(=O)N1CCc2cc(Nc3nc(Nc4cccc(S(N)(=O)=O)c4)ncc3F)ccc21` [VII-60, N2-(3-Aminosulfonylphenyl)-5-fluoro-N4-[4-(1-methylsulfonyl)indolin-5-yl]-2,4-pyrimidinediamine] showed a pIC50 [1, 5] of 7.19 and a pIC50 [2, 6] of 6.82.
`Cc1cc(Nc2nc(Nc3ccc(C)c(S(N)(=O)=O)c3)ncc2F)ccc1OC(C)C(N)=O` (racemic) [Compound I-121, Racemic N4-[4-(1-Aminocarbonyl)ethoxy-3-methyl]phenyl-N2-(3-aminosulfonyl-4-methyl)phenyl-5-fluoro-2,4-pyrimidinediamine] showed a pIC50 [1, 3] of 6.74 and a pIC50 [2, 4] of 6.20.
`CNS(=O)(=O)c1cc(Nc2ncc(F)c(Nc3cccc(OCc4cccnc4)c3)n2)ccc1C` [Compound I-184, 5-Fluoro-N2-[3-(N-methylaminosulfony)-4-methylphenyl]-5-fluoro-N4-[3-(3-pyridinyl)methyleneoxyphenyl]-2,4-pyrimidinediamine] was tested, and the pIC50 [1, 3] was 6.31 and the pIC50 [2, 4] was 5.59.
`N#CCn1ccc2cc(Nc3nc(Nc4ccc(S(N)(=O)=O)cc4)ncc3F)ccc21` [IX-6, N2-(4-Aminosulfonylphenyl)-N4-(1-cyanomethyleneindol-5-yl)-5-fluoro-2,4-pyrimidinediamine] showed a pIC50 [1, 5] of 7.08 and a pIC50 [2, 6] of 6.27.
`Cc1ccc(Nc2ncc(F)c(Nc3ccc(OC(C)C(N)=O)cc3)n2)cc1S(N)(=O)=O` (centres unmarked) [Compound I-118, N4-[4-(1-Aminocarbonyl)ethoxy]phenyl-N2-(3-aminosulfonyl-4-methyl)phenyl-5-fluoro-2,4-pyrimidinediamine] showed a pIC50 [1, 3] of 6.53 and a pIC50 [2, 4] of 6.25.
`NC1CCOc2ccc(Nc3nc(Nc4cccc(S(N)(=O)=O)c4)ncc3F)cc21` (centres unmarked) [VII-28, N2-(3-Aminosulfonylphenyl)-N4-(chroman-4-amine-6-yl)-5-fluoro-2,4-pyrimidinediamine] gave a pIC50 [1, 5] of 7.44 and a pIC50 [2, 6] of 6.15.
`C#CCOc1ccc(Nc2nc(Nc3ccc(C)c(S(=O)(=O)NC4CCN(C)CC4)c3)ncc2F)cc1` [VI-69, 5-Fluoro-N2-{[4-methyl-3-((1-methylpiperidin-4-yl)aminosulfonyl)]phenyl} N4-[4-(prop-2-ynyloxy)phenyl]-2,4-pyrimidinediamine] gave a pIC50 [1, 5] of 6.71 and a pIC50 [2, 6] of 5.87.
`Cc1cc(Nc2nc(Nc3cccc(S(N)(=O)=O)c3)ncc2F)cc(C)c1OC(C)C(N)=O` (racemic) [Compound I-123, Racemic N4-[4-(1-Aminocarbonyl)ethoxy-3,5-dimethyl]phenyl-N2-(3-aminosulfonyl)phenyl-5-fluoro-2,4-pyrimidinediamine] showed a pIC50 [1, 3] of 6.80 and a pIC50 [2, 4] of 6.65.
For `CNS(=O)(=O)c1cc(Nc2ncc(F)c(Nc3ccc(Cn4ccnc4)cc3)n2)ccc1C` [III-85, 5-Fluoro-N2-[3-(N-methylaminosulfony)-4-methylphenyl]-N4-[4-(1-imidazolylmethyl)phenyl]-2,4-pyrimidinediamine hydrochloride], the pIC50 ([1]; Ramos B-cell line stimulated with IL-4, CD23 expression by FACS, hydrochloride) was 7.14 and the pIC50 ([2]; primary human T-cell proliferation stimulated with IL-2, hydrochloride) was 6.91.
Molecule `COCCCn1ncc2cc(Nc3nc(Nc4cccc(S(N)(=O)=O)c4)ncc3F)ccc21` [VII-22, N2-(3-Aminosulfonylphenyl)-5-fluoro-N4-[1-(3-methoxypropyl)indazolin-5-yl]-2,4-pyrimidinediamine] has a pIC50 [1, 5] of 6.95 and a pIC50 [2, 6] of 6.89.
In the case of `Cc1cc(COc2cccc(Nc3nc(Nc4ccc(C)c(S(N)(=O)=O)c4)ncc3F)c2)no1` [Compound I-214], the pIC50 [1, 3] was 6.84 and the pIC50 [2, 4] was 5.88.
